Measurements published in patent US8273771B2, “Ischemic disorder or disease inhibitors” (Pronas Pharma AB, priority 2007, dated 2012).

Legend:
[1] = system: MCA and BA from rats with induced SAH; assay: Myograph contractile response to 5-CT in cerebral arteries of treated SAH rats; set-up: species or system rat; settings: treatment in vivo, compared to SAH rats; for 5-CT contraction, first 5-HT1B and second 5-HT2A phases: BA; for 5-CT contraction Emax(1) / 5-CT contraction Emax(2), pEC50(1) and pEC50(2): MCA
Procedure: After 48 hours of observation sham, SAH treated with SB386023-b or treated with the PKC inhibitor RO-31-7549 or U0126 or SAH+vehicle operated rats (see above SAH model) were anaesthetized with CO2 and decapitated. The brains were quickly removed and chilled in ice-cold bicarbonate buffer solution (see composition below). Under a dissection microscope, the middle cerebral artery (MCA), the basilar artery (BA) and circle of Willis were carefully dissected free from the brain and cleared of connective tissue. The MCA and BA were immediately mounted in myographs for in vitro pharmacology or snap frozen at −80° C. and examined by real-time PCR.
In vitro Pharmacology Myograph Experiments For contractile experiments a sensitive myograph was used for recording the isometric tension in isolated cerebral arteries (Hogestatt et al., (1983, Mulvany and Helpern, 1977). The vessels were cut into 1 mm long cylindrical segments and mounted on two 40 μm in diameter stainless steel wires in a Myograph (Danish Myo Technology A/S, Denmark). One wire was connected to a force displacement transducer attached to an analog-digital converter unit (ADInstruments, Oxford, UK). The other wire was connected to a micrometer screw, allowing fine adjustments of vascular tone by varying the distance between the wires. Measurements were recorded on a computer by use of a PowerLab unit (ADInstruments). The segments were immersed in a temperature controlled buffer solution (37° C.) of the following composition (mM) NaCl 119, NaHCO3 15, KCl 4.6, MgCl2 1.2, NaH2PO4 1.2, CaCl2 1.5 and glucose 5.5. The buffer was continuously aerated with oxygen enriched with 5% CO2 resulting in a pH of 7.4. The vessels were stretched to an initial resting tone of 2 mN and then allowed to stabilize at this tone for 1 hour. The contractile capacity was determined by exposing the vessels to an isotonic solution containing 63.5 mM of K+, obtained by partial change of NaCl for KCl in the above buffer. The contraction induced by K+ was used as reference for the contractile capacity. Only vessels responding by contraction of at least 2.0 mN to potassium for BA and 0.8 mN to potassium for MCA were included in the study. The presence of the endothelium was checked by precontracting the vessel using 5-HT (10^−6.5M) (Sigma, St Louis, USA) and subsequently exposing the segments to carbachol (10^−5 M) (Sigma, St Louis, USA). A relaxant response of the precontracted tension was considered indicative of a functional endothelium (Hansen-Schwartz et al., 2003a).
Concentration-response curves were obtained by cumulative application of 5-CT (Sigma, St. Louis, USA) in the concentration range 10^−12 to 10^−5 M, ET-1 (AnaSpec, San Jose, USA) in the concentration range 10^−14 to 10^−7 M and Ang II (Sigma, St. Louis, USA) in the concentration range 10^−12 to 10^−6 M. Before application of Ang II the arteries were pretreated with the AT2 receptor antagonist PD123319 (10^−5.5 M) for 30 minutes (a kind gift from Dr P. Morsing, Astra-Zeneca, Molndal, Sweden).
Data are expressed as mean±standard error of the mean (s.e.m.), and n refers to the number of rats. Statistical analyses were performed with Kruskal-Wallis non-parametric test with Dunn's post-hoc test, where P<0.05 was considered significant. In vitro Pharmacology Contractile responses in each segment are expressed as percentage of the 63.5 mM K+ induced contraction. Emax value represents the maximum contractile response elicited by an agonist and the pEC50 the negative logarithm of the drug concentration that elicited half the maximum response. For biphasic responses, Emax(1) and pEC50(1) describes the high affinity phase and Emax(2) and pEC50(2) describes the low affinity phase.

rats with induced SAH = assay: Physiological parameters in operated SAH rats; assay type: in vivo, rat; settings: sham, SAH+vehicle and treated SAH groups
Text: Subarachnoid hemorrhage was induced by a model originally devised by Svendgaard et al and carefully described by Prunell et al (2003). Male Sprague-Dawley rats (350-400 g) were anaesthetized using 5% halothane (Halocarbon Laboratories, River Edge, N.J.) in N2O/O2 (30:70). The rat was intubated and artificially ventilated with inhalation of 0.5-1.5% halothane in N2O/O2 (70:30) during the surgical procedure. The depth of anaesthesia was carefully monitored and the respiration checked by regularly withdrawing arterial blood samples for blood gas analysis (Radiometer, Copenhagen, Denmark). An electric temperature probe was inserted into the rectum of the rat to record the temperature, which was maintained at 37° C. An arterial catheter to measure blood pressure was placed in the tail artery and a catheter to monitor intracranial pressure (ICP) was placed in the subarachnoid space under the subocciptal membrane. At either side of the skull, 3 mm from the midline and 4 mm anteriorly from the bregma, holes were drilled through the skull bone down to dura mater (without perforation) allowing the placement of two laser-Doppler flow probes to measure cortical CBF. Finally, a 27G blunt canula with side hole was introduced 6.5 mm anterior to bregma in the midline at an angle of 30° to the vertical. With the aperture pointing to the right, the needle was lowered until the tip reached the skull base 2 to […] anterior to the chiasma. After 30 minutes of equilibration 250 μl blood was withdrawn from the tail catheter and injected intracranially via this canula at a pressure equal to the mean arterial blood pressure (MABP) (80-100 mmHg). Subsequently the rat was kept under anaesthesia for another 60 minutes to allow recovery from the cerebral insult after which catheters were removed and incisions closed. The rat was then revitalized and extubated. A subcutaneous injection of carprofen (4.0 mg/kg) (Pfizer, Denmark) was administered and the rat was hydrated subcutaneously using […] isotonic sodium chloride at the end of the operation and at day one.

Compound	5-CT contraction, first 5-HT1B and second 5-HT2A phases [1]	5-CT contraction Emax(1) [1]	5-CT contraction Emax(2), pEC50(1) and pEC50(2) [1]	physiological parameters (MABP, pCO2, pO2, hematocrit, temperature), difference between groups (rats with induced SAH)
Cn1cc(C2=C(c3cn(CCCN)c4ccccc34)C(=O)NC2=O)c2ccccc21 [RO-31-7549]	downregulated	significantly reduced	tendency to decrease	No statistical difference
Oc1cc(-c2nc(-c3ccccc3)[nH]c2-c2ccncc2)ccc1Cl [SB386023-b]	downregulated	significantly reduced	tended to decrease	No statistical difference
N#CC(=C(/N)Sc1ccccc1N)/C(C#N)=C(\N)Sc1ccccc1N [U0126]	–	significantly reduced	tended to decrease	No statistical difference
